{"source": "patent US20240246943A1", "about": "“MULTIFACETED APPROACH TO NOVEL INTERLEUKIN-6 INHIBITORS” (UNIVERSITY OF FLORIDA RESEARCH FOUNDATION, INCORPORATED, priority 2021, published 2024)", "origin": "cited, not measured here", "target": "T1, extracellular domain of glycoprotein 130 (gp130) (Homo sapiens, UniProt P40189)", "T1 sequence (P40189 23-619 limits assumed)": "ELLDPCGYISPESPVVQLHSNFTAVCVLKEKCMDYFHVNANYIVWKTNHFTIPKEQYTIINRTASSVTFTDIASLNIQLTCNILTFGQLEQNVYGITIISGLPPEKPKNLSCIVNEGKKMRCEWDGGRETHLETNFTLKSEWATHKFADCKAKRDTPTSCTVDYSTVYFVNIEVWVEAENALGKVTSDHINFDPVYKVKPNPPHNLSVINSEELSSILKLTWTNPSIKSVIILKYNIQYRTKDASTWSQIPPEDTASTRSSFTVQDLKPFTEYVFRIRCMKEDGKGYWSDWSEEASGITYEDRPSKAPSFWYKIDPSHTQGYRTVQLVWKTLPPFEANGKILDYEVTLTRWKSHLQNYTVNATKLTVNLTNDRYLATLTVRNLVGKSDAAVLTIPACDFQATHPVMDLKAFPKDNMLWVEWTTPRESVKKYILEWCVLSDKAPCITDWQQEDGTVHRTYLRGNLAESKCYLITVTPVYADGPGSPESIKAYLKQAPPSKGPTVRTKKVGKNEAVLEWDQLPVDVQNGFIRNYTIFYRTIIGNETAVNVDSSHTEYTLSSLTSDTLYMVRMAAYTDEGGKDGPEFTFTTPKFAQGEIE", "settings": "binding to extracellular domain of gp130; literature reference 6; cited from earlier work", "data": [{"smiles": "CCCCC1=C(C)C(=O)[C@](C)(CN2c3ccccc3[C@]3(O)CCOC23)C1=O", "note": "(stereo partly shown) [MDL-A, Madindoline A]", "values": [{"measurement": "Kd", "value": 288, "unit": "µM"}]}]}
